Assay results reported in US9611269B2, “Azetidinyl phenyl, pyridyl or pyrazinyl carboxamide derivatives as JAK inhibitors” (Incyte Corporation, priority 2011, dated 2017).

Assays:
Format in all cases: biochemical
[1] = molecular target: human JAK1 (a.a. 837-1142) catalytic domain (Homo sapiens, UniProt P23458); experiment: In vitro JAK kinase assay (HTRF, 1 mM ATP), JAK1; conditions: at 1 mM ATP;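 note: kinase activity followed as phosphorylation of a biotin-tagged peptide, detected by HTRF with Eu-labelled anti-phosphotyrosine antibody and SA-APC, after 1 h reaction at room temperature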
Sequence of human JAK1 (a.a. 837-1142) catalytic domain (Homo sapiens, UniProt P23458) (P23458 whole entry, looked up, the tested form may be a part): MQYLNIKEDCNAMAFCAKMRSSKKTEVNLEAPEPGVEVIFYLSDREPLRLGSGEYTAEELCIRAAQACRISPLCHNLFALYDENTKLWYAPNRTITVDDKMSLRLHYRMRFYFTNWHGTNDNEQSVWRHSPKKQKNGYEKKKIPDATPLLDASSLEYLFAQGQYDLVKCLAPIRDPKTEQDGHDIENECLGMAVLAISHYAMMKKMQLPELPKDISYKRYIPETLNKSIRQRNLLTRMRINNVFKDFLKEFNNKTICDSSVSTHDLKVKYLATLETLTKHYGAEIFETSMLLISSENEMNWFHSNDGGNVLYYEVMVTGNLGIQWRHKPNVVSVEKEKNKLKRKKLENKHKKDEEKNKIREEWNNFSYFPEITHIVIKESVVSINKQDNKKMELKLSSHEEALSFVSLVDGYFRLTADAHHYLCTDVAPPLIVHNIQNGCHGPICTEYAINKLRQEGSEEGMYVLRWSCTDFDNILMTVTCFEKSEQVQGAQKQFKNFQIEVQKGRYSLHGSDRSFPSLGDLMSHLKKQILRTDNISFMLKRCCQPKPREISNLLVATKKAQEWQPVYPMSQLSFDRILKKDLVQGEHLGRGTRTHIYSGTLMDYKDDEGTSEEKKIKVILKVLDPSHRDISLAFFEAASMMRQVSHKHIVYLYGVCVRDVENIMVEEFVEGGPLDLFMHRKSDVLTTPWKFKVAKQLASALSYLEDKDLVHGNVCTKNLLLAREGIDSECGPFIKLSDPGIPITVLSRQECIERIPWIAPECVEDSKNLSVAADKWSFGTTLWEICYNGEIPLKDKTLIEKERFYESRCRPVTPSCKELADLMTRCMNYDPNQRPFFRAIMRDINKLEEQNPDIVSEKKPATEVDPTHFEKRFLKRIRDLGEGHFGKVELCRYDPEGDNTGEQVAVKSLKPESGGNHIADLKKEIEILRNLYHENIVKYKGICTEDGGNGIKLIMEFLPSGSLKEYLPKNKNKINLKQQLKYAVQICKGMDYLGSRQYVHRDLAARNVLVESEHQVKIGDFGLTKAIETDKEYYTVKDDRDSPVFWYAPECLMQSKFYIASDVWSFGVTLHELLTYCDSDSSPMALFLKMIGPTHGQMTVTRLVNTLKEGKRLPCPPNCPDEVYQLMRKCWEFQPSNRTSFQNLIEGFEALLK
Description: (§1) The catalytic activity of JAK1, JAK2 or JAK3 was assayed by measuring the phosphorylation of a biotinylated peptide. The phosphorylated peptide was detected by homogenous time resolved fluorescence (HTRF). […] Reactions were carried out at room temperature for 1 hour and then stopped with 20 μL 45 mM EDTA, 300 nM SA-APC, 6 nM Eu-Py20 in assay buffer (Perkin Elmer, Boston, Mass.). Binding to the Europium labeled antibody took place for 40 minutes and HTRF signal was measured on a Fusion plate reader (Perkin Elmer, Boston, Mass.).

[2] = tested on: human JAK1 (a.a. 837-1142) catalytic domain; experiment: In vitro JAK kinase assay (HTRF, 1 mM ATP), JAK1; conditions: ratio of JAK2 IC50 to JAK1 IC50 at 1 mM ATP;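 note: kinase activity followed as phosphorylation of a biotin-tagged peptide, detected by HTRF with Eu-labelled anti-phosphotyrosine antibody and SA-APC, after 1 h reaction at room temperature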
Description: as §1

[3] = molecular target: human JAK2 (a.a. 828-1132) catalytic domain (Homo sapiens (Human), UniProt O60674); experiment: In vitro JAK kinase assay (HTRF, 1 mM ATP), JAK2; conditions: at 1 mM ATP
Sequence of human JAK2 (a.a. 828-1132) catalytic domain (O60674 828-1132): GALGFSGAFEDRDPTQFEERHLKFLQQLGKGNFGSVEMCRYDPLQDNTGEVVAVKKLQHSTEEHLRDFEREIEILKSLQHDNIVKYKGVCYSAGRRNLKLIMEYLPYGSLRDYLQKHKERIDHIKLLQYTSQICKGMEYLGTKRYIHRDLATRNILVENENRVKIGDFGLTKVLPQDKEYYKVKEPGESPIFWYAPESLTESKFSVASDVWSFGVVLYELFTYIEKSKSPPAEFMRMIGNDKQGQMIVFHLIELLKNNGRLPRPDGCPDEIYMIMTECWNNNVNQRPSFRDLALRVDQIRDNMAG
Description: as §1

Compound	IC50 [1]	JAK2/JAK1 [2]	IC50 [3]
CC(C)NC(=O)c1ccc(N2CC(CC#N)(n3cc(-c4ncnc5[nH]ccc45)cn3)C2)cc1 [Example 13, 4-{3-(Cyanomethyl)-3-[4-(7H-pyrrolo[2,3-d]pyrimidin-4-yl)-1H-pyrazol-1-yl]azetidin-1-yl}-N-isopropylbenzamide]	< 10 nM	A (A means greater than or equal to 10)	10 to 40 nM
C[C@H](NC(=O)c1ccc(N2CC(CC#N)(n3cc(-c4ncnc5[nH]ccc45)cn3)C2)cc1F)C1CCCCC1 [Example 15, 4-{3-(Cyanomethyl)-3-[4-(7H-pyrrolo[2,3-d]pyrimidin-4-yl)-1H-pyrazol-1-yl]azetidin-1-yl}-N-[(1S)-1-cyclohexylethyl]-2-fluorobenzamide]	< 10 nM	A (A means greater than or equal to 10)	10 to 40 nM
C[C@@H](NC(=O)c1ccc(N2CC(CC#N)(n3cc(-c4ncnc5[nH]ccc45)cn3)C2)c(F)c1)C(F)(F)F [Example 16, 4-{3-(Cyanomethyl)-3-[4-(7H-pyrrolo[2,3-d]pyrimidin-4-yl)-1H-pyrazol-1-yl]azetidin-1-yl}-3-fluoro-N-[(1R)-2,2,2-trifluoro-1-methylethyl]benzamide]	< 10 nM	A (A means greater than or equal to 10)	≤ 10 nM
N#CCC1(n2cc(-c3ncnc4[nH]ccc34)cn2)CN(c2ccc(C(=O)NC3(C(F)(F)F)CC3)nc2)C1 [Example 17, 5-{3-(Cyanomethyl)-3-[4-(7H-pyrrolo[2,3-d]pyrimidin-4-yl)-1H-pyrazol-1-yl]azetidin-1-yl}-N-[1-(trifluoromethyl)cyclopropyl]pyridine-2-carboxamide]	< 10 nM	A (A means greater than or equal to 10)	≤ 10 nM
CC(NC(=O)c1ccc(N2CC(CC#N)(n3cc(-c4ncnc5[nH]ccc45)cn3)C2)cc1)C1CCN(C)CC1 (stereo not drawn) [Example 20, 4-{3-(Cyanomethyl)-3-[4-(7H-pyrrolo[2,3-d]pyrimidin-4-yl)-1H-pyrazol-1-yl]azetidin-1-yl}-N-[1-(1-methylpiperidin-4-yl)ethyl]benzamide]	< 10 nM	A (A means greater than or equal to 10)	10 to 40 nM
C[C@@H](NC(=O)c1cc(F)c(N2CC(CC#N)(n3cc(-c4ncnc5[nH]ccc45)cn3)C2)cc1F)C1CC1 [Example 21, 4-{3-(Cyanomethyl)-3-[4-(7H-pyrrolo[2,3-d]pyrimidin-4-yl)-1H-pyrazol-1-yl]azetidin-1-yl}-N-[(1R)-1-cyclopropylethyl]-2,5-difluorobenzamide]	< 10 nM	A (A means greater than or equal to 10)	≤ 10 nM
C[C@H](NC(=O)c1ccc(N2CC(CC#N)(n3cc(-c4ncnc5[nH]ccc45)cn3)C2)cc1F)C(F)(F)F [Example 22, 4-{3-(Cyanomethyl)-3-[4-(7H-pyrrolo[2,3-d]pyrimidin-4-yl)-1H-pyrazol-1-yl]azetidin-1-yl}-2-fluoro-N-[(1S)-2,2,2-trifluoro-1-methylethyl]benzamide]	< 10 nM	A (A means greater than or equal to 10)	10 to 40 nM
CCNC(=O)c1ccc(N2CC(CC#N)(n3cc(-c4ncnc5[nH]ccc45)cn3)C2)cn1 [Example 24, 5-{3-(Cyanomethyl)-3-[4-(7H-pyrrolo[2,3-d]pyrimidin-4-yl)-1H-pyrazol-1-yl]azetidin-1-yl}-N-ethylpyridine-2-carboxamide]	< 10 nM	A (A means greater than or equal to 10)	≤ 10 nM
CC[C@@H](C)NC(=O)c1ccc(N2CC(CC#N)(n3cc(-c4ncnc5[nH]ccc45)cn3)C2)cc1 [Example 25, 4-{3-(Cyanomethyl)-3-[4-(7H-pyrrolo[2,3-d]pyrimidin-4-yl)-1H-pyrazol-1-yl]azetidin-1-yl}-N-[(1R)-1-methylpropyl]benzamide bis(trifluoroacetate)]	< 10 nM	A (A means greater than or equal to 10)	≤ 10 nM
CC(C)NC(=O)c1ccc(N2CC(CC#N)(n3cc(-c4ccnc5[nH]ccc45)cn3)C2)c(F)c1 [Example 27, 4-{3-(Cyanomethyl)-3-[4-(1H-pyrrolo[2,3-b]pyridin-4-yl)-1H-pyrazol-1-yl]azetidin-1-yl}-3-fluoro-N-isopropylbenzamide]	< 10 nM	A (A means greater than or equal to 10)	≤ 10 nM
C[C@H](NC(=O)c1cc(F)c(N2CC(CC#N)(n3cc(-c4ncnc5[nH]ccc45)cn3)C2)cc1F)C(F)(F)F [Example 28, 4-{3-(Cyanomethyl)-3-[4-(7H-pyrrolo[2,3-d]pyrimidin-4-yl)-1H-pyrazol-1-yl]azetidin-1-yl}-2,5-difluoro-N-[(1S)-2,2,2-trifluoro-1-methylethyl]benzamide]	< 10 nM	A (A means greater than or equal to 10)	≤ 10 nM
C[C@@H](NC(=O)c1cc(F)c(N2CC(CC#N)(n3cc(-c4ncnc5[nH]ccc45)cn3)C2)cc1F)C(F)(F)F [Example 29, 4-{3-(Cyanomethyl)-3-[4-(7H-pyrrolo[2,3-d]pyrimidin-4-yl)-1H-pyrazol-1-yl]azetidin-1-yl}-2,5-difluoro-N-[(1R)-2,2,2-trifluoro-1-methylethyl]benzamide]	< 10 nM	A (A means greater than or equal to 10)	≤ 10 nM
C[C@@H](NC(=O)c1cnc(N2CC(CC#N)(n3cc(-c4ncnc5[nH]ccc45)cn3)C2)cn1)C(F)(F)F [Example 30, 5-{3-(Cyanomethyl)-3-[4-(7H-pyrrolo[2,3-d]pyrimidin-4-yl)-1H-pyrazol-1-yl]azetidin-1-yl}-N-[(1R)-2,2,2-trifluoro-1-methylethyl]pyrazine-2-carboxamide]	< 10 nM	A (A means greater than or equal to 10)	10 to 40 nM
C[C@H](NC(=O)c1cnc(N2CC(CC#N)(n3cc(-c4ncnc5[nH]ccc45)cn3)C2)cn1)C(F)(F)F [Example 31, 5-{3-(Cyanomethyl)-3-[4-(7H-pyrrolo[2,3-d]pyrimidin-4-yl)-1H-pyrazol-1-yl]azetidin-1-yl}-N-[(1S)-2,2,2-trifluoro-1-methylethyl]pyrazine-2-carboxamide]	< 10 nM	A (A means greater than or equal to 10)	≤ 10 nM
N#CCC1(n2cc(-c3ncnc4[nH]ccc34)cn2)CN(c2cnc(C(=O)N[C@@H](C3CC3)C(F)(F)F)cn2)C1 [Example 32, 5-{3-(Cyanomethyl)-3-[4-(7H-pyrrolo[2,3-d]pyrimidin-4-yl)-1H-pyrazol-1-yl]azetidin-1-yl}-N-[(1S)-1-cyclopropyl-2,2,2-trifluoroethyl]pyrazine-2-carboxamide]	< 10 nM	A (A means greater than or equal to 10)	≤ 10 nM
N#CCC1(n2cc(-c3ncnc4[nH]ccc34)cn2)CN(c2cnc(C(=O)NC3(C(F)(F)F)CC3)cn2)C1 [Example 33, 5-{3-(Cyanomethyl)-3-[4-(7H-pyrrolo[2,3-d]pyrimidin-4-yl)-1H-pyrazol-1-yl]azetidin-1-yl}-N-[1-(trifluoromethyl)cyclopropyl]pyrazine-2-carboxamide]	< 10 nM	A (A means greater than or equal to 10)	10 to 40 nM
C[C@H](NC(=O)c1cnc(N2CC(CC#N)(n3cc(-c4ccnc5[nH]ccc45)cn3)C2)cn1)C(F)(F)F [Example 35, 5-{3-(Cyanomethyl)-3-[4-(1H-pyrrolo[2,3-b]pyridin-4-yl)-1H-pyrazol-1-yl]azetidin-1-yl}-N-[(1S)-2,2,2-trifluoro-1-methylethyl]pyrazine-2-carboxamide]	< 10 nM	A (A means greater than or equal to 10)	10 to 40 nM
N#CCC1(n2cc(-c3ccnc4[nH]ccc34)cn2)CN(c2cnc(C(=O)NCC(F)(F)F)cn2)C1 [Example 36, 5-{3-(Cyanomethyl)-3-[4-(1H-pyrrolo[2,3-b]pyridin-4-yl)-1H-pyrazol-1-yl]azetidin-1-yl}-N-(2,2,2-trifluoroethyl)pyrazine-2-carboxamide]	< 10 nM	A (A means greater than or equal to 10)	10 to 40 nM
N#CCC1(n2cc(-c3ncnc4[nH]ccc34)cn2)CN(c2cc(F)c(C(=O)NCC(F)F)cc2F)C1 [Example 37, 4-{3-(Cyanomethyl)-3-[4-(7H-pyrrolo[2,3-d]pyrimidin-4-yl)-1H-pyrazol-1-yl]azetidin-1-yl}-N-(2,2-difluoroethyl)-2,5-difluorobenzamide]	< 10 nM	A (A means greater than or equal to 10)	≤ 10 nM
N#CCC1(n2cc(-c3ncnc4[nH]ccc34)cn2)CN(c2ccc(C(=O)N[C@@H](C3CC3)C(F)(F)F)cc2)C1 [Example 38, 4-{3-(Cyanomethyl)-3-[4-(7H-pyrrolo[2,3-d]pyrimidin-4-yl)-1H-pyrazol-1-yl]azetidin-1-yl}-N-[(1S)-1-cyclopropyl-2,2,2-trifluoroethyl]benzamide]	< 10 nM	A (A means greater than or equal to 10)	10 to 40 nM
C[C@@H](NC(=O)c1ccc(N2CC(CC#N)(n3cc(-c4ncnc5[nH]ccc45)cn3)C2)cc1F)C1CC1 [Example 39, 4-{3-(Cyanomethyl)-3-[4-(7H-pyrrolo[2,3-d]pyrimidin-4-yl)-1H-pyrazol-1-yl]azetidin-1-yl}-N-[(1R)-1-cyclopropylethyl]-2-fluorobenzamide]	< 10 nM	A (A means greater than or equal to 10)	10 to 40 nM
N#CCC1(n2cc(-c3ccnc4[nH]ccc34)cn2)CN(c2ccc(C(=O)NC3(C(F)(F)F)CC3)nc2)C1 [Example 40, 5-{3-(Cyanomethyl)-3-[4-(1H-pyrrolo[2,3-b]pyridin-4-yl)-1H-pyrazol-1-yl]azetidin-1-yl}-N-[1-(trifluoromethyl)cyclopropyl]pyridine-2-carboxamide]	< 10 nM	A (A means greater than or equal to 10)	10 to 40 nM
